{"source": "patent US7118895B2", "about": "“Process for producing aglycon by using diglycosidase and flavor-improved food containing the aglycon and converting agent to be used in the process” (Amano Enzyme Inc., priority 2000, dated 2006)", "tested_on": "Crude diglycosidase", "test": "Examination of pH in the conversion into isoflavone aglycons by diglycosidase using soybean materials", "assay_type": "biochemical, Penicillium multicolor IAM7153", "parameters": "Decomposition efficiency of genistin family in soymilk / Decomposition efficiency of genistin family in defatted soybean / Decomposition efficiency of daidzin family in defatted soybean: concentration or dose not given beside the values", "details": "for Decomposition efficiency of genistin family in roasted soy flour: 55° C.", "description": "A substrate solution of 450 μL was prepared by suspending 50 mg of each soybean material (roasted soy flour (manufactured by Fuji Shokuryo K.K.), soymilk (manufactured by Gitoh Shokuhin K.K.), defatted soybean (manufactured by Fuji Seiyu K.K.), concentrated soybean protein (manufactured by Fuji Seiyu K.K.)), and adjusting the pH to 2 to 11 with hydrochloric acid or sodium hydroxide. Each enzyme solution of pH 2–11 wherein diglycosidase activity of crude diglycosidase was adjusted to 1.88 AU/mL was added thereto in an amount of 50 μL and the whole was reacted at 55° C. at the total volume of 500 μL. To the reaction mixture was added 700 μL of ethanol after 0, 1, 3, and 6 hours of the reaction. After stirring and ultrasonication, the mixture was subjected to centrifugal separation at 15,000 rpm and 4° C. for 10 minutes. The supernatant was filtered through a filter and the existence of isoflavone glycosides and aglycon isoflavones contained in the reaction mixture was detected by HLPC (Tables 15 to 26).", "key": {"[1]": {"details": "pH6.6, heat treatment of enzyme: no, reaction time 0 h"}, "[2]": {"details": "pH6.6, heat treatment of enzyme: no, reaction time 1 h"}, "[3]": {"details": "pH6.6, heat treatment of enzyme: no, reaction time 3 h"}, "[4]": {"details": "pH6.6, heat treatment of enzyme: no, reaction time 6 h"}, "[5]": {"details": "pH6.6, heat treatment of enzyme: yes, reaction time 6 h"}}, "data": [{"compound": "CC(=O)OC[C@H]1O[C@@H](Oc2cc(O)c3c(=O)c(-c4ccc(O)cc4)coc3c2)[C@H](O)[C@@H](O)[C@@H]1O", "note": "[acetylgenistin, 6″-O-acetylgenistin]", "values": [{"measurement": "Decomposition efficiency of genistin family in roasted soy flour", "setting": "pH5, heat treatment of enzyme no, reaction time 0 h", "value": 45.4}, {"measurement": "Decomposition efficiency of genistin family in roasted soy flour", "setting": "pH5, heat treatment of enzyme no, reaction time 1 h", "value": 39.9}, {"measurement": "Decomposition efficiency of genistin family in roasted soy flour", "setting": "pH5, heat treatment of enzyme no, reaction time 3 h", "value": 26.9}, {"measurement": "Decomposition efficiency of genistin family in roasted soy flour", "setting": "pH5, heat treatment of enzyme no, reaction time 6 h", "value": 17.6}, {"measurement": "Decomposition efficiency of genistin family in roasted soy flour", "setting": "pH5, heat treatment of enzyme yes, reaction time 6 h", "value": 42.0}, {"measurement": "Decomposition efficiency of genistin family in concentrated soybean protein", "setting": "pH5.1, heat treatment of enzyme: no, reaction time 0 h", "value": 43.1, "unit": "%"}, {"measurement": "Decomposition efficiency of genistin family in concentrated soybean protein", "setting": "pH5.1, heat treatment of enzyme: no, reaction time 1 h", "value": 45.2, "unit": "%"}, {"measurement": "Decomposition efficiency of genistin family in concentrated soybean protein", "setting": "pH5.1, heat treatment of enzyme: no, reaction time 3 h", "value": 40.2, "unit": "%"}, {"measurement": "Decomposition efficiency of genistin family in concentrated soybean protein", "setting": "pH5.1, heat treatment of enzyme: no, reaction time 6 h", "value": 35.6, "unit": "%"}, {"measurement": "Decomposition efficiency of genistin family in concentrated soybean protein", "setting": "pH5.1, heat treatment of enzyme: yes, reaction time 6 h", "value": 42.4, "unit": "%"}, {"measurement": "Decomposition efficiency of genistin family in defatted soybean", "setting": "pH5.4, heat treatment of enzyme: no, reaction time 0 h", "value": 1.8, "unit": "%"}, {"measurement": "Decomposition efficiency of genistin family in defatted soybean", "setting": "pH5.4, heat treatment of enzyme: no, reaction time 1 h", "value": 0.5, "unit": "%"}, {"measurement": "Decomposition efficiency of genistin family in defatted soybean", "setting": "pH5.4, heat treatment of enzyme: no, reaction time 3 h", "value": "not detected"}, {"measurement": "Decomposition efficiency of genistin family in defatted soybean", "setting": "pH5.4, heat treatment of enzyme: no, reaction time 6 h", "value": "not detected"}, {"measurement": "Decomposition efficiency of genistin family in defatted soybean", "setting": "pH5.4, heat treatment of enzyme: yes, reaction time 6 h", "value": "not detected"}, {"measurement": "Decomposition efficiency of genistin family in soymilk", "setting": "pH6.2, heat treatment of enzyme: no, reaction time 0 h", "value": 0.5, "unit": "%"}, {"measurement": "Decomposition efficiency of genistin family in soymilk", "setting": "pH6.2, heat treatment of enzyme: no, reaction time 1 h", "value": "not detected"}, {"measurement": "Decomposition efficiency of genistin family in soymilk", "setting": "pH6.2, heat treatment of enzyme: no, reaction time 3 h", "value": "not detected"}, {"measurement": "Decomposition efficiency of genistin family in soymilk", "setting": "pH6.2, heat treatment of enzyme: no, reaction time 6 h", "value": "not detected"}, {"measurement": "Decomposition efficiency of genistin family in soymilk", "setting": "pH6.2, heat treatment of enzyme: yes, reaction time 6 h", "value": 0.6, "unit": "%"}, {"measurement": "Decomposition efficiency of genistin family in roasted soy flour", "setting": "pH6.5, heat treatment of enzyme no, reaction time 0 h", "value": 45.8}, {"measurement": "Decomposition efficiency of genistin family in roasted soy flour", "setting": "pH6.5, heat treatment of enzyme no, reaction time 1 h", "value": 45.3}, {"measurement": "Decomposition efficiency of genistin family in roasted soy flour", "setting": "pH6.5, heat treatment of enzyme no, reaction time 3 h", "value": 38.8}, {"measurement": "Decomposition efficiency of genistin family in roasted soy flour", "setting": "pH6.5, heat treatment of enzyme no, reaction time 6 h", "value": 34.0}, {"measurement": "Decomposition efficiency of genistin family in roasted soy flour", "setting": "pH6.5, heat treatment of enzyme yes, reaction time 6 h", "value": 39.2}, {"measurement": "Decomposition efficiency of genistin family in concentrated soybean protein", "setting": "[1]", "value": 43.0, "unit": "%"}, {"measurement": "Decomposition efficiency of genistin family in defatted soybean", "setting": "[1]", "value": 1.7, "unit": "%"}, {"measurement": "Decomposition efficiency of genistin family in concentrated soybean protein", "setting": "[2]", "value": 43.6, "unit": "%"}, {"measurement": "Decomposition efficiency of genistin family in defatted soybean", "setting": "[2]", "value": 0.6, "unit": "%"}, {"measurement": "Decomposition efficiency of genistin family in concentrated soybean protein", "setting": "[3]", "value": 42.8, "unit": "%"}, {"measurement": "Decomposition efficiency of genistin family in defatted soybean", "setting": "[3]", "value": 0.3, "unit": "%"}, {"measurement": "Decomposition efficiency of genistin family in concentrated soybean protein", "setting": "[4]", "value": 41.0, "unit": "%"}, {"measurement": "Decomposition efficiency of genistin family in defatted soybean", "setting": "[4]", "value": 0.2, "unit": "%"}, {"measurement": "Decomposition efficiency of genistin family in concentrated soybean protein", "setting": "[5]", "value": 40.6, "unit": "%"}, {"measurement": "Decomposition efficiency of genistin family in defatted soybean", "setting": "[5]", "value": 0.2, "unit": "%"}, {"measurement": "Decomposition efficiency of genistin family in soymilk", "setting": "pH7.2, heat treatment of enzyme: no, reaction time 0 h", "value": 0.7, "unit": "%"}, {"measurement": "Decomposition efficiency of genistin family in soymilk", "setting": "pH7.2, heat treatment of enzyme: no, reaction time 1 h", "value": "not detected"}, {"measurement": "Decomposition efficiency of genistin family in soymilk", "setting": "pH7.2, heat treatment of enzyme: no, reaction time 3 h", "value": "not detected"}, {"measurement": "Decomposition efficiency of genistin family in soymilk", "setting": "pH7.2, heat treatment of enzyme: no, reaction time 6 h", "value": "not detected"}, {"measurement": "Decomposition efficiency of genistin family in soymilk", "setting": "pH7.2, heat treatment of enzyme: yes, reaction time 6 h", "value": 0.7, "unit": "%"}, {"measurement": "Decomposition efficiency of genistin family in defatted soybean", "setting": "pH7.8, heat treatment of enzyme: no, reaction time 0 h", "value": 1.6, "unit": "%"}, {"measurement": "Decomposition efficiency of genistin family in defatted soybean", "setting": "pH7.8, heat treatment of enzyme: no, reaction time 1 h", "value": 1.0, "unit": "%"}, {"measurement": "Decomposition efficiency of genistin family in defatted soybean", "setting": "pH7.8, heat treatment of enzyme: no, reaction time 3 h", "value": 0.8, "unit": "%"}, {"measurement": "Decomposition efficiency of genistin family in defatted soybean", "setting": "pH7.8, heat treatment of enzyme: no, reaction time 6 h", "value": 0.7, "unit": "%"}, {"measurement": "Decomposition efficiency of genistin family in defatted soybean", "setting": "pH7.8, heat treatment of enzyme: yes, reaction time 6 h", "value": 0.6, "unit": "%"}, {"measurement": "Decomposition efficiency of genistin family in roasted soy flour", "setting": "pH8.5, heat treatment of enzyme no, reaction time 0 h", "value": 39.5}, {"measurement": "Decomposition efficiency of genistin family in roasted soy flour", "setting": "pH8.5, heat treatment of enzyme no, reaction time 1 h", "value": 39.5}, {"measurement": "Decomposition efficiency of genistin family in roasted soy flour", "setting": "pH8.5, heat treatment of enzyme no, reaction time 3 h", "value": 39.2}, {"measurement": "Decomposition efficiency of genistin family in roasted soy flour", "setting": "pH8.5, heat treatment of enzyme no, reaction time 6 h", "value": 37.3}, {"measurement": "Decomposition efficiency of genistin family in roasted soy flour", "setting": "pH8.5, heat treatment of enzyme yes, reaction time 6 h", "value": 35.2}, {"measurement": "Decomposition efficiency of genistin family in concentrated soybean protein", "setting": "pH8.6, heat treatment of enzyme: no, reaction time 0 h", "value": 39.7, "unit": "%"}, {"measurement": "Decomposition efficiency of genistin family in concentrated soybean protein", "setting": "pH8.6, heat treatment of enzyme: no, reaction time 1 h", "value": 38.8, "unit": "%"}, {"measurement": "Decomposition efficiency of genistin family in concentrated soybean protein", "setting": "pH8.6, heat treatment of enzyme: no, reaction time 3 h", "value": 39.0, "unit": "%"}, {"measurement": "Decomposition efficiency of genistin family in concentrated soybean protein", "setting": "pH8.6, heat treatment of enzyme: no, reaction time 6 h", "value": 38.5, "unit": "%"}, {"measurement": "Decomposition efficiency of genistin family in concentrated soybean protein", "setting": "pH8.6, heat treatment of enzyme: yes, reaction time 6 h", "value": 37.6, "unit": "%"}, {"measurement": "Decomposition efficiency of genistin family in soymilk", "setting": "pH11.6, heat treatment of enzyme: no, reaction time 0 h", "value": 0.5, "unit": "%"}, {"measurement": "Decomposition efficiency of genistin family in soymilk", "setting": "pH11.6, heat treatment of enzyme: no, reaction time 1 h", "value": "not detected"}, {"measurement": "Decomposition efficiency of genistin family in soymilk", "setting": "pH11.6, heat treatment of enzyme: no, reaction time 3 h", "value": "not detected"}, {"measurement": "Decomposition efficiency of genistin family in soymilk", "setting": "pH11.6, heat treatment of enzyme: no, reaction time 6 h", "value": "not detected"}, {"measurement": "Decomposition efficiency of genistin family in soymilk", "setting": "pH11.6, heat treatment of enzyme: yes, reaction time 6 h", "value": 0.9, "unit": "%"}]}]}
